This is an account of results in patent US11083726B2, “Methods and compositions for treating vasomotor symptoms” (UNIVERSITY OF WASHINGTON THROUGH ITS CENTER FOR …, priority 2012, dated 2021).

The assay relates to LH secretion. Description: LH secretion in ovariectomized mice after i.p. injection of a PRKA (serum LH by radioimmunoassay). Type of assay: in vivo. The method, then:
Female mice (000664 C57BL/6J) were obtained from The Jackson Laboratory (Sacramento, Calif., USA) at 8 weeks of age. All animals were housed on a 12:12-h light-dark cycle (lights off at 1800) with food and water available ad libitum. All experiments were conducted in accordance with the National Institutes of Health (NIH) Animal Care and Use Guidelines and with approval of the Animal Care and Use Committee of the University of Washington.
Mice were ovariectomized 13 days prior to the experiment, which occurred at approximately 11 weeks of age. Mice were anesthetized with isoflurane and bilaterally ovariectomized (OVX). Briefly, the animal's ventral skin was shaved and cleaned, and small incisions were made in the skin and abdominal musculature. The gonads were identified and excised, the abdominal muscle was sutured, and the skin incision was closed with surgical clips.
Mice were injected i.p. (<500 μl) with vehicle [0.9% sterile saline (Hospira, Lake Forest, Ill., USA) with 3.6% sterile DMSO (Sigma Aldrich, Inc., St. Louis, Mo., USA), n=7] or the following doses of the PRKA, ICI204,448 hydrochloride (Tocris Bioscience, Bristol, UK), diluted in sterile saline/DMSO: 0.1 mg/kg (0.018% DMSO, n=6), 1 mg/kg (0.18% DMSO, n=4), 10 mg/kg (1.8% DMSO, n=5), or 20 mg/kg (3.6% DMSO, n=7). N.B. 1 mg/kg and 10 mg/kg groups run in different experiment/assay. […]

In the case of `CN(C(=O)Cc1ccc(Cl)c(Cl)c1)C(CN1CCCC1)c1cccc(OCC(=O)O)c1.Cl` (racemic) [ICI 204,448 hydrochloride, (RS)-[3-[1-[[(3,4-Dichlorophenyl)acetyl]methylamino]-2-(1-pyrrolidinyl)ethyl]phenoxy]acetic acid hydrochloride], under “mice, 0.1, 1, 10, 20 mg/kg i.p., 1 mg/kg and 10 mg/kg in different experiment/assay”, the “LH secretion (FIG. 2)” value is recorded as “dose-dependent decrease”. Further, the LH post injection result (ovariectomized mice, High Dose 20 mg/kg i.p., 20 minutes after injection, vs. Low Dose 0.1 mg/kg (P<0.01) and Vehicle (P<0.001)) is “significantly decreased”.
